Our source for the IC50 and Activity values is ChEMBL document CHEMBL5260832, “Hepatoprotective natural triterpenoids” (Eur J Med Chem, 2018).

One may read the IC50 as the concentration at which inhibition is half-maximal.

The test system of data set [1] is Hepatocyte. The data set is described as follows: Hepatoprotective activity against D-GaIN/TNFalpha induced cell death in mouse hepatocytes assessed as reduction in TNF alpha level. In kind it is functional, cell-based.
Data set [2] deals with Hepatocyte. The data set can be described thus: Hepatoprotective activity against D-GaIN/TNFalpha -induced cell death in mouse hepatocyte assessed as inhibition of cell death. The arrangement: Activity: concentration or dose not given beside the values. In kind it is functional, cell-based.
For data set [3], the system named is Hepatocyte. The data set is described as follows: Hepatoprotective activity against D-GaIN induced liver injury in rat hepatocyte assessed as decrease in LDH level at 30 to 120 uM. The class given is functional. Conditions: dose 30-120 µM.
Data set [4] is described as follows: Hepatotoxicity in D-GaIN induced in Wistar rat model hepatocyte assessed as reduction in PLA2 level. In kind it is toxicity, cell-based.
The test system of data set [5] is Hepatocyte. The data set is described as follows: Hepatoprotective activity against D-GaIN induced liver injury in rat hepatocyte assessed as decrease in ALT level at 30 to 120 uM. In kind it is functional. The settings on record: dose 30-120 µM.
A short description of data set [6]: Hepatotoxicity in rat hepatocyte assessed as change in GSH level at 30 microg/mL relative to control. The class given is toxicity, cell-based. Conditions: hepatocytes, at 30 µg/mL.
The test system of data set [7] is Hepatocyte. The data set is described as follows: Hepatoprotective activity against D-GaIN/TNFalpha-induced cell death in mouse hepatocyte at 100 uM. The class given is functional, cell-based.
The nature of data set [8]: Hepatotoxicity in rat assessed as reduction in GPT level at 1.0 mg/mL measured after 48 hrs (reference value: 291 IU/L). In kind it is toxicity. The settings on record: in vivo.
Data set [9] in a line: Hepatoprotective activity against D-Galactosamine-induced toxicity in rat WB-F344 cell assessed as cell damage at 10 uM by MTT colorimetric assay relative to control. The class given is functional. In general terms: Formazan colour is commonly taken as a measure of viable cells.
Data set [10] has as its system Hepatocyte. The data set can be described thus: Hepatoprotective activity against D-GaIN-induced toxicity in mouse hepatocyte relative to control. In kind it is functional, cell-based.
A short description of data set [11]: Hepatotoxicity in D-GaIN induced Wistar rat assessed as change in induction of TAT level for 10 days relative to control. The class given is toxicity. The arrangement: concentration or dose not given beside the values. The settings on record: in vivo, 240 h, time 10 day.

On to `C=C(C)C(=O)CC[C@@H](C=O)[C@H]1CC[C@@]2(C)[C@@H]3CC[C@H]4[C@](C)(C(=O)OC)[C@@H](O)C[C@H](O)[C@@]45C[C@@]35CC[C@]12C`, for which, in data set [1], the IC50 was 89.3 µM.

For the compound `C=C(C)[C@H](O)CC[C@@H](C)[C@H]1CC[C@@]2(C)[C@@H]3CC[C@H]4[C@](C)(C(=O)O)[C@@H](O)C[C@H](O)[C@@]45C[C@@]35CC[C@]12C`, the IC50 in data set [1] came to 34.3 µM. Regarding `C[C@@H]1C(=O)O[C@H]2[C@@H]1O[C@]13O[C@@]4(CC[C@]5(C)C(=O)[C@@](C)(O)[C@H]2[C@H]15)C[C@]12OC(=O)C[C@H]1OC(C)(C)[C@@H]2C[C@@H]1O[C@@]14C3=O`, in data set [2], the Activity came to 37.6%.

Consider `C[C@]1(C(=O)O)CC[C@]2(C)CC[C@]3(C)C(=CC(=O)[C@@H]4[C@@]5(C)CC[C@H](O[C@@H]6O[C@H](C(=O)O)[C@@H](O)[C@H](O)[C@H]6O[C@@H]6O[C@H](C(=O)O)[C@@H](O)[C@H](O)[C@H]6O)[C@](C)(CO)[C@@H]5CC[C@]43C)[C@@H]2C1`, for which the Activity in data set [3] is 253.5 U/L; in [5] it was 17.1 U/L. Also, the IC50 in data set [4] was found to be 6.9 µM. Take `C[C@@H]1C(=O)O[C@H]2[C@@H]1O[C@]13O[C@@]4(CC[C@]5(C)C(=O)[C@](C)(O)[C@@]2(O)[C@H]15)C[C@]12OC(=O)C[C@H]1OC(C)(C)[C@@H]2C[C@@H]1O[C@@]14C3=O`: the Activity in data set [2] was 37.6%. As for `C[C@H]1C(=O)O[C@@H]2[C@H]1O[C@@]13O[C@]4(CC[C@@]5(C)C(=O)[C@@](C)(O)[C@]2(O)[C@@H]15)C[C@@]12OC(=O)C[C@@H]1OC(C)(C)[C@H]2C[C@@H](O)[C@@H]4C3=O`, the Activity in data set [2] stood at 37.6%. On to `CC1(C)[C@@H](O[C@@H]2O[C@H](C(=O)O)[C@@H](O)[C@H](O)[C@H]2O[C@@H]2O[C@H](C(=O)O)[C@@H](O)[C@H](O)[C@H]2O)CC[C@]2(C)[C@H]3C(=O)C=C4[C@@H]5C[C@]6(C)C[C@@H](OC6=O)[C@]5(C)CC[C@@]4(C)[C@]3(C)CC[C@@H]12`, for which the IC50 in data set [4] is 32.2 µM.

As to `CO[C@@H]1C=C2[C@@H]3CC(C)(C)CC[C@]3(CO)[C@@H](O)C[C@@]2(C)[C@]2(C)CC[C@H]3C(C)(C)[C@@H](O[C@@H]4O[C@H](C)[C@H](O)[C@H](O[C@@H]5O[C@H](CO)[C@@H](O)[C@H](O)[C@H]5O)[C@H]4O)CC[C@]3(C)[C@@H]12`, in data set [6], the Activity was determined as 75%. Regarding `CC1(C)[C@@H](O[C@@H]2O[C@H](C(=O)O)[C@@H](O)[C@H](O)[C@H]2O[C@@H]2O[C@H](C(=O)O)[C@@H](O)[C@H](O)[C@H]2O)CC[C@]2(C)[C@H]3C(=O)C=C4[C@@H]5C[C@](C)(C(=O)O)CC[C@]5(C)CC[C@@]4(C)[C@]3(C)CC[C@@H]12`, the Activity in data set [3] amounted to 253.5 U/L; in data set [5], 17.1 U/L. For the same compound, the IC50 in [4] amounted to 16.9 µM.

`CC1=C2C3=CC[C@@H]4[C@@]5(C)C[C@@H](O)[C@H](O)[C@@](C)(CO)[C@@H]5CC[C@@]4(C)[C@]3(C)CC[C@@]2(C(=O)O[C@@H]2O[C@H](CO)[C@@H](O)[C@H](O)[C@H]2O)CC[C@H]1C`: in [7], the IC50 was found to be 34.6 µM. Consider `CC1(C)CC[C@]2(C(=O)O[C@@H]3O[C@H](CO)[C@@H](O)[C@H](O)[C@H]3O)CC[C@]3(C)C(=CC[C@@H]4[C@@]5(C)CC[C@H](O)[C@@](C)(C(=O)O)[C@@H]5CC[C@]43C)[C@@H]2C1`, for which the Activity in data set [8] was 137 IU/L. With `C[C@@H]1C(=O)[C@]2(C)CC[C@@]34C[C@@]56OC(=O)C[C@@H]5OC(C)(C)[C@H]6C[C@@H](O)[C@@H]3C(=O)[C@]3(O[C@@H]5[C@@H](OC(=O)[C@@H]5C)[C@H]1[C@@H]32)O4`, the Activity in data set [2] stood at 37.6%. Consider `CC1=CC[C@H]([C@@H](C)[C@H]2CC[C@@]3(C)CCC[C@H]4C(C)(C)O[C@@H]5CC(=O)O[C@@]54CC(=O)[C@H](O)C[C@]23C)OC1=O`, for which, in data set [2], the Activity is reported as 37.6%. As for `CC1(C)CC[C@]2(C(=O)O[C@@H]3O[C@H](CO[C@@H]4O[C@H](CO)[C@@H](O)[C@H](O)[C@H]4O)[C@@H](O)[C@H](O)[C@H]3O)CC[C@]3(C)C(=CC[C@@H]4[C@@]5(C)CC[C@H](O[C@@H]6O[C@H](CO)[C@@H](O)[C@H](O)[C@H]6O)[C@@](C)(C(=O)O)[C@@H]5CC[C@]43C)[C@@H]2C1`, the Activity in data set [8] amounted to 279 IU/L. Still for that read-out and setting: next, `CC1(C)CC[C@]2(C(=O)O[C@@H]3O[C@H](CO[C@@H]4O[C@H](CO)[C@@H](O)[C@H](O)[C@H]4O)[C@@H](O)[C@H](O[C@@H]4O[C@H](CO)[C@@H](O)[C@H](O)[C@H]4O)[C@H]3O)CC[C@]3(C)C(=CC[C@@H]4[C@@]5(C)CC[C@H](O[C@@H]6O[C@H](CO)[C@@H](O)[C@H](O)[C@H]6O)[C@@](C)(C(=O)O)[C@@H]5CC[C@]43C)[C@@H]2C1`: 279 IU/L.

In the case of `CC(C)=CCC[C@@H](C(=O)O)[C@H]1CC[C@@]2(C)C3=C(CC[C@]12C)[C@@]1(C)CC[C@H](O)C(C)(C)[C@@H]1CC3` [TRAMETENOLIC ACID], in data set [9], the Activity is reported as 75%. On to `CC(C)=C(C)[C@H]1C[C@@H]([C@H]2CC[C@@]3(C)C4=C(CC[C@]23C)[C@@]2(C)CC[C@H](O)C(C)(C)[C@@H]2CC4)C(=O)O1`, for which the Activity in data set [9] came to 71.9%. Regarding `C[C@]1(C(=O)O)CC[C@]2(C)CC[C@]3(C)C(=CC(=O)[C@@H]4[C@@]5(C)CC[C@H](O[C@@H]6O[C@H](C(=O)O)[C@@H](O)[C@H](O)[C@H]6O[C@@H]6O[C@H](C(=O)O)[C@@H](O)[C@H](O)[C@H]6O)[C@](C)(CO)[C@@H]5CC[C@]43C)[C@H]2C1`, the results for the Activity in data set [3] and in [5] were 253.5 U/L and 17.1 U/L, respectively. The IC50 in [4] came to 3.6 µM. For `CC(C)=CC[C@@H](O)[C@@H](C)[C@H]1CC[C@@]2(C)C3=C(C(=O)C[C@]12C)[C@@]1(C)CC[C@H](O)C(C)(C)[C@@H]1CC3`, in [9], the Activity is on record as 81.2%. Still for that read-out and setting: to `CC(C)=CCC[C@@H](C)[C@H]1CC[C@@]2(C)C3=C(CC[C@]12C)[C@@]1(C)CC[C@H](O)C(C)(C)[C@@H]1CC3` [LANOSTEROL] belongs 74.8%.

Take `COC(=O)[C@]1(C)[C@@H](O)C[C@H](O)[C@]23C[C@]24CC[C@]2(C)[C@@H]([C@H](C=O)C/C=C/C(C)(C)O)CC[C@@]2(C)[C@@H]4CC[C@@H]13`: in [1], the IC50 came out at 45.7 µM. As to `CC1(C)CC[C@]2(C(=O)O[C@@H]3O[C@H](CO[C@@H]4O[C@H](CO)[C@@H](O)[C@H](O)[C@H]4O)[C@@H](O)[C@H](O[C@@H]4O[C@H](CO)[C@@H](O)[C@H](O)[C@H]4O)[C@H]3O)CC[C@]3(C)C(=CC[C@@H]4[C@@]5(C)CC[C@H](O)[C@@](C)(C(=O)O)[C@@H]5CC[C@]43C)[C@@H]2C1`, in [8], the Activity is recorded as 279 IU/L.

`C[C@@H]1CC[C@]2(C(=O)O)CC[C@]3(C)C(=CC[C@@H]4[C@@]5(C)C[C@@H](O)[C@H](O)C(C)(C)[C@@H]5CC[C@]43C)[C@@H]2[C@]1(C)O` [TOMENTIC ACID]: in data set [10], the IC50 was determined as 9.5 µM. For `CC(=O)O[C@@H]1C[C@](C)(C(=O)O)C[C@H]2C3=CC(=O)[C@@H]4[C@@]5(C)CC[C@H](O[C@@H]6O[C@H](C(=O)O)[C@@H](O)[C@H](O)[C@H]6O[C@@H]6O[C@H](C(=O)O)[C@@H](O)[C@H](O)[C@H]6O)C(C)(C)[C@@H]5CC[C@@]4(C)[C@]3(C)CC[C@@]12C`, the Activity is on record as 242.8 U/L in [3] and 16.5 U/L in [5]. Besides, the IC50 in [4] was 27.1 µM. `CC1(C)CC[C@@]2(C)[C@H](C1)C1=CC[C@@H]3[C@@]4(C)CC[C@@H](O)C(C)(C)[C@@H]4CC[C@@]3(C)[C@]1(C)C[C@@H]2O`: in data set [11], the Activity was determined as 5.3%. As for `CC(C)C(O)(CO)CC[C@@H](C)[C@H]1CC[C@@]2(C)[C@@H]3CC[C@H]4[C@H](C(=O)O)[C@@H](O)C[C@H](O)[C@@]45C[C@@]35CC[C@]12C` (stereo partly specified), the IC50 in data set [1] stood at 67.6 µM. Regarding `C[C@@]1(CO)CC[C@]2(C(=O)O[C@@H]3O[C@H](CO)[C@@H](O)[C@H](O)[C@H]3O)CC[C@]3(C)C(=CC[C@@H]4[C@@]5(C)CC[C@H](O)[C@@](C)(C(=O)O)[C@@H]5CC[C@]43C)[C@@H]2C1`, in data set [8], the Activity turned out to be 206 IU/L. Regarding `CC(C)=CC[C@H](O)[C@@H](C)[C@H]1CC[C@@]2(C)C3=C(CC[C@]12C)[C@@]1(C)CC[C@H](O)C(C)(C)[C@@H]1CC3`, in data set [9], the Activity turned out to be 56.3%. As to `C=C(C)[C@@H](O)CC[C@@H](CO)[C@H]1CC[C@@]2(C)[C@@H]3CC[C@H]4[C@](C)(C(=O)OC)[C@@H](O)C[C@H](O)[C@@]45C[C@@]35CC[C@]12C` [METHYL QUADRANGULARATE], in [1], the IC50 came to 337 µM. `C=C(C)[C@@H]1CC[C@]2(C(=O)O)CC[C@]3(C)[C@H](CC[C@@H]4[C@@]5(C)C[C@@H](O)[C@H](O)[C@](C)(CO)[C@@H]5[C@H](O)C[C@]43C)[C@@H]12`: the concentration for half-maximal inhibition (IC50) in [2] (Mus musculus, Hepatocyte) turned out to be 51.2 µM. As to `CC1(C)[C@@H](O[C@H]2O[C@H](C(=O)O)[C@@H](O)[C@H](O)[C@H]2O[C@@H]2O[C@H](C(=O)O)[C@@H](O)[C@H](O)[C@H]2O)CC[C@]2(C)[C@H]3C(=O)C=C4[C@@H]5C[C@@](C)(C(=O)O)CC[C@]5(C)CC[C@@]4(C)[C@]3(C)CC[C@@H]12` [GLYCYRRHIZIN], the Activity in data set [3] came out at 253.5 U/L; in data set [5] it was 17.1 U/L. Besides, in [4], the IC50 was determined as 9.3 µM.
